# Measurements reported in US5922557A, “System for stably expressing a high-affinity camp phosphodiesterase and use thereof” (Merck & Co., Inc., priority 1998, dated 1999).
# Entries after “also recorded” stand apart in the source; their conditions may differ. Where two headings read alike, the source gives them in different places.
# How the values were obtained:
# [1] = tested on: high-affinity rolipram binding site, rat forebrain membranes; conditions: cited from earlier work
# [2] = tested on: PKA in CHO-K1 cells stably expressing PDE IVa; assay: Whole-cell cAMP dependent protein kinase (PKA) activity ratio; type: cell-based; conditions: with 1 μM PGI2, read-out: apparent EC50 to activate PKA
# Method: PKA activity ratios were determined as the amount of ^32 P transferred to histone F2B in the presence and absence of cAMP as described in Materials and Methods. Data points represent the fractional PKA activation by incubating cells with the indicated concentrations of inhibitor and […]. Experiments were performed in triplicate. n=3 experiments±SD.
# CHO-K1 cells were grown and resuspended as described above except that the Hank's buffer was replaced by a solution containing 0.25M sucrose; 10 mM Tris, pH 7.5; and 0.5 mM EDTA. The cells were preincubated and incubated with 1 μM PGI2 and the indicated compounds at room temperature as described above. The incubations were terminated by the addition of 0.05% Triton X-100 (final) and incubating the cells for 5 min on ice. […] This mixture (final volume 220 μl) was incubated in a waterbath for 30 min at 35° C. and terminated by adding 5 ml of ice cold 5% TCA. The precipatated protein was applied to a Whatman GF/B filter under vacuum and the filter was subsequently washed with 3×5 ml ice cold TCA solution. The amount of -32P incorporation was measured by placing the filters in Aquasol and counting in a BECKMAN LSC 5000. Basal cAMP independent protein kinase activity was determined by the inclusion of 1 μM Protein Kinase A Peptide Inhibitor (19) in the reaction mixture. Maximal cAMP protein kinase activity was determined in the presence of 10 μM cAMP. All determinations were performed in triplicate and activity ratios were calculated as the [(kinase activity in the presence of PDE inhibitor minus cAMP independent kinase activity)/(maximal cAMP kinase activity minus cAMP independent kinase activity)]×100.
# [3] = tested on: CHO-K1 cells stably expressing rhPDE IVa; assay: cells; type: cell-based; conditions: for EC50: CHO-K1, with 10 μM PGI2 (b116 prints 10 FM), read-out: EC50 for elevating cellular cAMP; for effect of preincubation on sensitivity of the enzyme to inhibitors: whole-cell preparation, data not shown
# Method: Levels of cAMP were measured in CHO-K1 cells stably expressing PDE IVa enzyme as outlined in Materials and Methods.
# CHO-K1 cells were plated at a density of 10^6 cells/175 cm^2 containing complete media with 500 μg/ml hygromycin. The flasks were maintained in an incubator at 37° C. with 5.0% CO2 for 72 hr. The media was changed and the cells were allowed to grow overnight. The cells were washed and dissociated from the plate with PBS containing 0.5 mM EDTA. Cellular cAMP content was measured by centrifuging the cell suspension at 150 g×10 min and resuspending the cells in a Hanks buffered salt solution at a density of 0.2×10^6 cells/ml. The cells were preincubated at room temperature for 15 min and then incubated with 10 μM prostaglandin I2 (PGI2) and the indicated compound for an additional 10 min. Basal cAMP levels were determined by incubating the cells in 0.1% DMSO. The incubations were terminated by the addition of HCl (0.1N final) and the cells measured for cAMP.
# Determinations of whole-cell cAMP content were performed by incubating 100 μl reconstituted rabbit anti-succinyl cAMP serum with 100 μl of the whole-cell reaction or known cAMP standard and 30 pmol of 125I-cAMP TME in a […]™ well (300 μl final volume) at room temperature for 18 h. Total cpm (Bo) was determined in the absence of sample or cAMP standard. The reaction mixture was then aspirated out of the well, and individual wells were counted in a BECKMAN LS 6000SC with the window open from 10-999 for 1 min. The data were expressed as %B/Bo=[(standard or sample cpm--non-specific cpm)/(Bo cpm-non-specific cpm)]×100. Non-specific cpm were determined by incubating only the 125I-cAMP TME with assay buffer (50 mM acetate; pH 5.8) in the ScintiStrip™ well. All determinations were performed in triplicate.
# FLAG PDE IVA [4] = target: T1, FLAG PDE IVA (Homo sapiens, UniProt P27815, M723I); conditions: 150 mM KCl with 3 mg/ml HSA vs HSA alone
# Method: PDE activity was measured in a solution containing 50 mM Tris, pH 7.5; 10 mM MgCl2; 1 mM EDTA; and 100 nM (or indicated) 3H-cAMP ([…] final volume) in the presence of varying concentrations of inhibitor. The reaction mixture containing enzyme was incubated for 10 min at 30° C. in 96-well View Plates (PACKARD), and terminated by the addition of 50 μl Phosphodiesterase Scintillation Proximity Assay (SPA) Beads ([…]) containing 18 mM ZnSO4. The amount of 3H-cAMP hydrolysis was determined by counting the plates in a WALLAC 1450 μBeta LSC counter.
# [5] = target: T2, recombinant full-length human PDE IVa (rhPDEIVa) (Homo sapiens, UniProt P27815, M723I); assay: Phosphodiesterase Scintillation Proximity Assay, inhibition of soluble rhPDE IVa (100,000×g supernatant of transfected CHO-K1 cells); type: biochemical
# T2 construct: a cDNA insert encoding for a full-length human PDE IVa enzyme; made in house; host or cells: CHO-K1 cells, stably transfected (also expressing the prostanoid IP receptor); 100,000xg supernatant of the sonicate
# Method: Inhibition of soluble rhPDEIVa by specific inhibitors was examined at 100 nM substrate. Enzyme activity was determined as described in Materials and Methods using the Amersham SPA beads that specifically bind 5'AMP.
# Inhibition of soluble rhPDEIVa by specific inhibitors was examined in the presence of 5 mM to 100 mM MgCl2. Enzyme activity was determined as described in Materials and Methods using the Amersham SPA beads that specifically bind 5'AMP in the presence of […] cAMP substrate.
# [6] = tested on: full-length PDE Iva / HPDE IV; conditions: cited from earlier work
# FLAG PDE IVAmet330 [7] = target: T3, FLAG PDE IVAmet330 (Homo sapiens, UniProt P27815, M723I); conditions: KCl and/or HSA
# Target sequence in this assay (P27815 332-886 M723I limits assumed): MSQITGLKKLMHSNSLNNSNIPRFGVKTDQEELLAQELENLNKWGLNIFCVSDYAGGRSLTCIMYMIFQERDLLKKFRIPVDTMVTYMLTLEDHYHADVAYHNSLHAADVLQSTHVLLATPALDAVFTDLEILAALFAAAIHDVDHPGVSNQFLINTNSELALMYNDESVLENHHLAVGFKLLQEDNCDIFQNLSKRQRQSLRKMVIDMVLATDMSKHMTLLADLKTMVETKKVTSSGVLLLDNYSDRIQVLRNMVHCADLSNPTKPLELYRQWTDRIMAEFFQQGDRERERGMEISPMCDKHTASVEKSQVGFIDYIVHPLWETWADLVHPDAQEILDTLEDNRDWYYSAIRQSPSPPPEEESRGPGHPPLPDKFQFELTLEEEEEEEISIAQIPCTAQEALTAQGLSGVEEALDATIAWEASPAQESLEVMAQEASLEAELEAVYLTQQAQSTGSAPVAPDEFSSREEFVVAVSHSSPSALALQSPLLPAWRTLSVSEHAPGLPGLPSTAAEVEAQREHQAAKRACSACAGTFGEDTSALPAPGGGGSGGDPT
# Method: (§1) CHO-K1 cells were lysed by sonication for 10 secs at a power setting of 50% (BRAUNSONIC Model 2000) in an ice cold solution containing 50 mM Tris, pH 7.5; 1 mM EDTA; and 200 μM mercaptoethanol. The soluble and particulate fractions of the cell were obtained by centrifuging the sonicate for 90 min at 100,000×g at 4° C. PDE activity was measured in a solution containing 50 mM Tris, pH 7.5; 10 mM MgCl2 ; 1 mM EDTA; and 100 nM (or indicated) 3H-cAMP (100 ml final volume) in the presence of varying concentrations of inhibitor. The reaction mixture containing enzyme was incubated for 10 min at 30° C. in 96-well View Plates (PACKARD), and terminated by the addition of 50 μl Phosphodiesterase Scintillation Proximity Assay (SPA) Beads ([sequence]) containing 18 mM ZnSO4. The amount of 3H-cAMP hydrolysis was determined by counting the plates in a WALLAC 1450 μBeta LSC counter.
# (§2) CHO-K1 cells stably expressing epitope FLAG PDE IV constructs were lysed by sonication for 10 secs at a power setting of 50% (Braunsonic Model 2000) in an ice cold solution containing 50 mM Tris, pH 7.5; 1 mM EDTA; protease inhibitor cocktail (Boehringer, Montreal, QUE). The soluble and particulate fractions of the cell were obtained by centrifuging the sonicate for 90 min at 100,000×g at 40° C.
# [8] = tested on: catalytic portion of PDE IV; conditions: UCR1 and UCR2 deleted; cited from earlier work
# HSA = assay: [3H](R)-rolipram binding to HSA; parameters: species or system human; conditions: presence or absence of 150 mM KCl
# Method: (§3) The filters were quickly washed with an ice-cold solution of 50 mM Tris; pH 7.5. […] Non-specific binding amounted to less than 5% of the total measured binding activity.
# FLAG PDE IVA [9] = target: T1, FLAG PDE IVA
# Method: Each point represents the mean of 3 separate experiments performed in duplicate±SEM. […] Each point represents the average of 3 separate experiments.
# CHO-K1 cells stably expressing epitope FLAG PDE IV constructs were lysed by sonication for 10 secs at a power setting of 50% (Braunsonic Model 2000) in an ice cold solution containing 50 mM Tris, pH 7.5; 1 mM EDTA; protease inhibitor cocktail (Boehringer, Montreal, QUE). The soluble and particulate fractions of the cell were obtained by centrifuging the sonicate for 90 min at 100,000×g at 40° C. Twenty-five ml. […] The affinity matrix was washed with column buffer until all unbound protein was eluted from the column as determined with a UV-2 flow cell. Bound material was eluted with column buffer containing 0.5 mg/ml. FLAG peptide at a flow rate of 2 ml/min.
# (§4) The filters were quickly washed with an ice-cold solution of 50 mM Tris; pH 7.5.
# rhPDE IVa = rhPDE IVa (Homo sapiens, UniProt P27815, M723I)
# Method: Shown is the saturable binding to the soluble rhPDE IVa enzyme with increasing concentrations of ligand from 0.2 to 100 nM (panal A).
# as §4
# FLAG PDE IVAmet330 [10] = target: T3, FLAG PDE IVAmet330; type: binding; parameters: made in house; conditions: 0.2 to 100 nM [^3 H](R)-rolipram
# Target sequence in this assay (P27815 332-886 M723I): as the sequence (P27815 332-886 M723I limits assumed) above
# Method: CHO-K1 cells stably expressing epitope FLAG PDE IV constructs were lysed by sonication for 10 secs at a power setting of 50% (Braunsonic Model 2000) in an ice cold solution containing 50 mM Tris, pH 7.5; 1 mM EDTA; protease inhibitor cocktail (Boehringer, Montreal, QUE). The soluble and particulate fractions of the cell were obtained by centrifuging the sonicate for 90 min at 100,000×g at 40° C. […] The affinity matrix was washed with column buffer until all unbound protein was eluted from the column as determined with a UV-2 flow cell. Bound material was eluted with column buffer containing 0.5 mg/ml. FLAG peptide at a flow rate of 2 ml/min.
# as §3
# [11] = target: T2, recombinant full-length human PDE IVa (rhPDEIVa); assay: Phosphodiesterase Scintillation Proximity Assay, inhibition of soluble rhPDE IVa (100,000×g supernatant of transfected CHO-K1 cells); type: biochemical; conditions: broken-cell preparation; data not shown
# human neutrophils = assay: Whole-cell cAMP elevation in human neutrophils; type: cell-based; conditions: vs RS 14203 and (R)-rolipram; data not presented
# HL-60 cells = assay: Whole-cell cAMP elevation in HL-60 cells; type: cell-based; conditions: vs RS 14203 and (R)-rolipram; data not presented
# U937 cells = assay: Whole-cell cAMP elevation in U937 cells; type: cell-based, human; conditions: vs RS 14203 and (R)-rolipram; data not presented
# FLAG PDE IVAmet330 [12] = conditions: truncated vs full-length enzyme
# Method: as §1, §2
# [13] = tested on: eosinophils from guinea pigs; assay: Whole-cell cAMP elevation in guinea pig eosinophils; type: cell-based; conditions: vs RS 14203 and (R)-rolipram; data not presented
# T2 sequence (P27815 whole entry M723I): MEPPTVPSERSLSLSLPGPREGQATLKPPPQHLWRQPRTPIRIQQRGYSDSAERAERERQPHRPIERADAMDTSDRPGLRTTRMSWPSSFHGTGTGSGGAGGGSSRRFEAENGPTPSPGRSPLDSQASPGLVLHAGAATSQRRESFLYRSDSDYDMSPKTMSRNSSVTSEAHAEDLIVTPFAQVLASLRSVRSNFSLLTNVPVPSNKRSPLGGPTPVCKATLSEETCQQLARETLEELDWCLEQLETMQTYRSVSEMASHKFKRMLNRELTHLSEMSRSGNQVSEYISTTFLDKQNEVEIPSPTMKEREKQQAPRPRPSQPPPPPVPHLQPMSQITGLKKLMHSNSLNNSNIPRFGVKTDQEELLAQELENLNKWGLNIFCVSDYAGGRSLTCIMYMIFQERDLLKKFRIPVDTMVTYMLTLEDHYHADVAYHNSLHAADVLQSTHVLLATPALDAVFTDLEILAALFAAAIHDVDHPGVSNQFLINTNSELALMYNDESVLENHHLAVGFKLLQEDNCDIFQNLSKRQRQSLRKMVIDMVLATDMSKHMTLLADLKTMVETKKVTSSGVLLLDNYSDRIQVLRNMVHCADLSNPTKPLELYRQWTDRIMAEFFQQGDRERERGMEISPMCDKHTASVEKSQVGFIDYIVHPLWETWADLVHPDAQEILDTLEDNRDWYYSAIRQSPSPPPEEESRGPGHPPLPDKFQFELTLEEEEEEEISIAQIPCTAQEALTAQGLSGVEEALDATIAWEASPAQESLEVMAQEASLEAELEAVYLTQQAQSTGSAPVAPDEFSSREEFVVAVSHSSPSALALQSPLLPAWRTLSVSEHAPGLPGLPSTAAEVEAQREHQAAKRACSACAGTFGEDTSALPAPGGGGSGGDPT
# T1 sequence (P27815 whole entry M723I): as above
# Sequence of rhPDE IVa (P27815 whole entry M723I): as above
structure (smiles),measurement,setting,value
COc1ccc(C2CNC(=O)C2)cc1OC1CCCC1 (racemic) [(±)[3H] rolipram],increase in high-affinity binding,[1]; 100 mM NaCl and 1 mM MgCl2,20 fold
same,Bmax,[1]; rat forebrain membranes,19.3 pmol/g rat forebrain
COc1ccc([C@H]2CNC(=O)C2)cc1OC1CCCC1 [(S)-rolipram],EC50,[2]; CHO-K1,1000 nM
COc1ccc([C@@H]2CNC(=O)C2)cc1OC1CCCC1 [(R)-rolipram],EC50,[3],486 nM
same,additional increase in enzyme sensitivity to (R)-rolipram,FLAG PDE IVA [4],3 fold
same,EC50,[2]; CHO-K1,168 nM
same,effect of assay solution osmolality on rolipram sensitivity of the enzyme,[5],no effect upon the rolipram sensitivity of the enzyme
same,inhibition of cAMP hydrolytic activity in the stable clones,[5],completely inhibitable
same,Hill co-effecient for inhibition of HPDE IV catalytic activity,[6],0.43
same,effect of assay conditions on sensitivity of FLAG PDE IVAmet330 to (R)-rolipram,FLAG PDE IVAmet330 [7],unaffected
same,concentration required for inhibition of catalytic portion,[8],at least a micromolar concentration
COc1ccc([C@@H]2CNC(=O)C2)cc1OC1CCCC1 [[^3 H](R)-rolipram],specific binding to HSA,HSA,No specific binding
same,Stochiometry,FLAG PDE IVA [9]; 0 mM KCl,0.02 (0.0) fmol [^3 H](R)-Rolipram/fmol P
same,Bmax,FLAG PDE IVA [9]; 0 mM KCl + 3 mg/ml HSA,150 (47) fmol [^3 H](R)-rolipram
same,Stochiometry,FLAG PDE IVA [9]; 0 mM KCl + 3 mg/ml HSA,0.10 (0.03) fmol [^3 H](R)-Rolipram/fmol P
same,Bmax,FLAG PDE IVA [9]; 3 mg/ml HSA,150±47 fmol/1.6 pmol enzyme
same,increase in Bmax,FLAG PDE IVA [9]; 3 mg/ml HSA,5 fold
same,Bmax,FLAG PDE IVA [9]; 150 mM KCl,63 (16) fmol [^3 H](R)-rolipram
same,Stochiometry,FLAG PDE IVA [9]; 150 mM KCl,0.04 (0.01) fmol [^3 H](R)-Rolipram/fmol P
same,Bmax,FLAG PDE IVA [9]; 150 mM KCl (text),63±16 fmol/1.6 pmol enzyme
same,Bmax,FLAG PDE IVA [9]; 150 mM KCl + 3 mg/ml HSA,240 (37) fmol [^3 H](R)-rolipram
same,Stochiometry,FLAG PDE IVA [9]; 150 mM KCl + 3 mg/ml HSA,0.15 (0.03) fmol [^3 H](R)-Rolipram/fmol P
same,Bmax,FLAG PDE IVA [9]; 150 mM KCl + 3 mg/ml HSA (text),240 fmol/1.6 pmol purified enzyme
same,Bmax,rhPDE IVa; 150 mM KCl,0.47 pmol/20 μg prot.
same,Hill coefficient of binding,rhPDE IVa; 300 mM KCl,2
same,Bmax,rhPDE IVa; absence of added KCl,0.16 pmol/20 μg prot.
same,saturable high-affinity binding to truncated enzyme,FLAG PDE IVAmet330 [10],did not exhibit any saturable binding; also recorded: does not display any saturable high-affinity [^3 H](R)-rolipram binding
C=C1[C@@H](O)[C@@H]2O[C@]3(CC[C@H](/C=C/[C@@H](C)[C@@H]4CC(C)=C[C@@]5(O[C@H](C[C@@](C)(O)C(=O)O)CC[C@H]5O)O4)O3)CC[C@H]2O[C@@H]1[C@@H](O)C[C@H](C)[C@H]1O[C@@]2(CCCCO2)CC[C@H]1C [okadaic acid],effect of preincubation on sensitivity of the enzyme to inhibitors,[3],no effect on the sensitivity of the enzyme to inhibitors
same,effect of preincubation on sensitivity of the enzyme to inhibitors,[11],no effect on the sensitivity of the enzyme to inhibitors
COc1ccc([C@H](Cc2ccncc2)c2ccccc2)cc1OC1CCCC1 [CDP 840],relative potency / response in elevating whole-cell cAMP,[3]; with PGI2,"least potent of the compounds tested, and a maximal ""plateau"" response was not obtained"
same,relative potency at elevating whole-cell cAMP,human neutrophils,consistently less potent than RS 14203 and (R)-rolipram
same,relative potency at elevating whole-cell cAMP,HL-60 cells,consistently less potent than RS 14203 and (R)-rolipram
same,EC50,[2],319 nM
same,effect of increased salt / ionic strength on inhibitory potency (IC50),[5],not substantially affected; also recorded: not appreciably affected; also recorded: not affected by an increase of ionic strength; also recorded: not affected by the increases in assay buffer ionic strength
same,relative potency against recombinant full-length PDE IVa enzyme,[5],as potent as RS 14203 and more potent than (R)-rolipram
same,IC50,[5]; read-out: IC50 for inhibition of soluble PDE IVa activity,9 nM
same,relative potency at elevating whole-cell cAMP,U937 cells,consistently less potent than RS 14203 and (R)-rolipram
same,discrimination between high- and low-affinity states of the enzyme,FLAG PDE IVAmet330 [12],do not discriminate between the two affinity states of the enzyme
same,relative potency at elevating whole-cell cAMP,[13],consistently less potent than RS 14203 and (R)-rolipram
CO[C@H]([C@H](O)CC(=O)[C@@H](C)[C@@H](O)CC[C@@H](C)[C@@H]1O[C@]2(CC[C@@H](C)[C@H](CC[C@H](C)C(C)=O)O2)CC[C@@H]1C)[C@H](OC(=O)C[C@@H](O)C1=C(C)C(=O)OC1=O)C(C)C [tautomycin],effect of preincubation on sensitivity of the enzyme to inhibitors,[3],no effect on the sensitivity of the enzyme to inhibitors
same,effect of preincubation on sensitivity of the enzyme to inhibitors,[11],no effect on the sensitivity of the enzyme to inhibitors
O=[N+]([O-])c1cccc(-c2cc(Cc3ccncc3)cc3cccnc23)c1 [RS 14203],EC50,[3],27 nM
same,cellular cAMP reached,"[3]; with PGI2, from 0.2 pmol cAMP/10^4 cells",3.6 pmols cAMP/10^4 cells
same,EC50,[2]; CHO-K1,10 nM
same,IC50,"[5]; 100 nM cAMP substrate, read-out: IC50 for inhibition of soluble PDE IVa activity",9 nM
same,IC50,"[5]; 5 mM MgCl2, read-out: IC50, inhibition of soluble rhPDEIVa",140 nM
same,IC50,"[5]; 100 mM MgCl2, read-out: IC50, inhibition of soluble rhPDEIVa",0.5 nM
same,effect of increased salt / ionic strength on inhibitory potency (IC50),[5]; increasing MgCl2 or other salt in assay buffer,became more potent; also recorded: salt dependent shift in IC50 from low to high affinity
